System: IKZF1, ASS1 and SALL4 recruitment to CRBN
Assay: Recruitment assessment: recruitment of any tested substrate from among IKZF1, ASS1 and SALL4
Format: cell-based
Details: any tested substrate at any tested compound concentration
Method: In this experimental set-up, cells were transfected with a construct encoding a CRBN-fusion protein and another one encoding a substrate-fusion protein. Test compound activity was assessed with increasing concentrations of test compounds (dose-response studies) to monitor the ability to promote CRBN-ligand-induced protein interaction.
Full size proteins were fused for each of the target proteins tested, except in the case of IKZF1 where isoform 7 was used. For the study, the following were used: IKZF1 recruitment: pSEL-CRBN+pMG1-IKZF1(isoform 7); ASS1 recruitment: pSEL-CRBN+pMG1-ASS1. SALL4 recruitment: pSEL-SALL4+pMG1-CRBN. […] Luciferase activity was measured 24 hours after test compound treatment using the Luciferase Assay System kit (PROMEGA, Madison, Wis.) with an Ensight plate reader (PERKIN ELMER LIFE SCIENCES, Waltham, Mass.). Data points depicted fold induction of the average luciferase activity of triplicate samples from EPO+test compound treated cells versus EPO only treated cells. Error bars represent standard deviations. Curves were fit using 4-parameter nonlinear regression in […] PRISM software.

## Nc1cccc2c1CN(C1CNC(=O)NC1=O)C2=O (stereo not shown) [C47928, 5-(4-amino-1-oxo-isoindolin-2-yl)hexahydropyrimidine-2,4-dione]
  Recruitment Assessment: FALSE

## Nc1cccc2c1CN(C1CCCC(=O)NC1=O)C2=O (stereo not shown) [C47932, 3-(4-amino-1-oxo-isoindolin-2-yl)azepane-2,7-dione]
  Recruitment Assessment: TRUE

## Nc1cccc2c1CCN(C1CCC(=O)NC1=O)C2=O (stereo not shown) [C47933, 3-(5-amino-1-oxo-3,4-dihydroisoquinolin-2-yl)piperidine-2,6-dione]
  Recruitment Assessment: TRUE

## O=C(O)CNc1ccc2c(c1)C(=O)N(C1CCC(=O)NC1=O)C2 (stereo not shown) [C47997, 2-[[2-(2,6-dioxo-3-piperidyl)-3-oxo-isoindolin-5-yl]amino]acetic acid]
  Recruitment Assessment: FALSE

## N#Cc1cccc2c1C(=O)N(C1CCC(=O)NC1=O)C2 (stereo not shown) [C48009, 2-(2,6-dioxo-3-piperidyl)-3-oxo-isoindoline-4-carbonitrile]
  Recruitment Assessment: FALSE

## O=C1CCC(N2Cc3cccc(-c4ccccc4)c3C2=O)C(=O)N1 (stereo not shown) [C48020, 3-(1-oxo-7-phenyl-isoindolin-2-yl)piperidine-2,6-dione]
  Recruitment Assessment: FALSE

## O=C1N=CC(N2C(=O)c3ccccc3C2=O)C(=O)N1 (stereo not shown) [C49278, 2-(2,6-dioxo-5H-pyrimidin-5-yl)isoindoline-1,3-dione]
  Recruitment Assessment: FALSE

## CN(C)CC(=O)Nc1ccc2c(c1)C(=O)N(C1CCC(=O)NC1=O)C2 (stereo not shown) [C49708, 2-(dimethylamino)-N-[2-(2,6-dioxo-3-piperidyl)-3-oxo-isoindolin-5-yl]acetamide]
  Recruitment Assessment: FALSE

## O=C1CCC(N2C(=O)c3ccccc3C2C2=c3ccccc3=NC2)C(=O)N1 (stereo not shown) [C49713, 3-[1-(2H-indol-3-yl)-3-oxo-isoindolin-2-yl]piperidine-2,6-dione]
  Recruitment Assessment: FALSE

## O=C1CCC(N2C(=O)C3CC=CCC3C2=O)C(=O)N1 (stereo not shown) [C51647, 2-(2,6-dioxo-3-piperidyl)-3a,4,7,7a-tetrahydroisoindole-1,3-dione]
  Recruitment Assessment: FALSE

## O=C1CCC(Nc2ncccn2)C(=O)N1 (stereo not shown) [C55468, 3-(pyrimidin-2-ylamino)piperidine-2,6-dione]
  Recruitment Assessment: FALSE

## Nc1cccc2c1CN(C1CCS(=O)(=O)NC1=O)C2=O (stereo not shown) [C55859, 4-(4-Amino-1-oxoisoindolin-2yl)-1,2-thiazinan-3-one 1,1-dioxide]
  Recruitment Assessment: FALSE

## COC1c2ccccc2C(=O)N1C1CCC(=O)NC1=O (stereo not shown) [C56572, 3-(1-methoxy-3-oxo-isoindolin-2-yl)piperidine-2,6-dione]
  Recruitment Assessment: FALSE

## Cc1ccc(NC(=O)NCc2cc(C)c3c(c2)CN(C2CCC(=O)NC2=O)C3=O)cc1Cl (stereo not shown) [C58181, 1-(3-chloro-4-methyl-phenyl)-3-[[2-(2,6-dioxo-3-piperidyl)-7-methyl-1-oxo-isoindolin-5-yl]methyl]urea]
  Recruitment Assessment: TRUE

## O=C1CCC(N2Cn3c(cccc3=O)C2=O)C(=O)N1 (stereo not shown) [C60651, 2-(2,6-dioxo-3-piperidyl)-3H-imidazo[1,5-a]pyridine-1,5-dione]
  Recruitment Assessment: FALSE

## O=C1CCC(N2C(=O)C=C(c3ccccc3)C2=O)C(=O)N1 (stereo not shown) [C64319, 3-(2,5-dioxo-3-phenyl-pyrrol-1-yl)piperidine-2,6-dione]
  Recruitment Assessment: FALSE

## O=C1CCC(N2C(=O)C3=C(CCC3)C2=O)C(=O)N1 (stereo not shown) [C64324, 2-(2,6-dioxo-3-piperidyl)-5,6-dihydro-4H-cyclopenta[c] pyrrole-1,3-dione]
  Recruitment Assessment: FALSE

## O=C1CCC(N2C(=O)CC3(Cc4ccccc4C3)C2=O)C(=O)N1 (stereo not shown) [C64329, 1′-(2,6-dioxo-3-piperidyl)spiro[indane-2,3′-pyrrolidine]-2′,5′-dione]
  Recruitment Assessment: FALSE

## O=C1CCC(N2C(=O)CC(NC(=O)OCc3ccccc3)C2=O)C(=O)N1 (stereo not shown) [C64344, benzyl N-[1-(2,6-dioxo-3-piperidyl)-2,5-dioxo-pyrrolidin-3-yl]carbamate]
  Recruitment Assessment: FALSE

## O=C1CCC(N2C(=O)CC3(CCOCC3)C2=O)C(=O)N1 (stereo not shown) [C64348, 2-(2,6-dioxo-3-piperidyl)-8-oxa-2-azaspiro[4.5]decane-1,3-dione]
  Recruitment Assessment: FALSE

## CN1CCC2(CC1)CC(=O)N(C1CCC(=O)NC1=O)C2=O (stereo not shown) [C64372, 2-(2,6-dioxo-3-piperidyl)-8-methyl-2,8-diazaspiro[4.5]decane-1,3-dione]
  Recruitment Assessment: FALSE

## Cc1nc(N(C)C)cc2c1C(=O)N(C1CCC(=O)NC1=O)C2=O (stereo not shown) [C64376, 6-(dimethylamino)-2-(2,6-dioxo-3-piperidyl)-4-methyl-pyrrolo[3,4-c] pyridine-1,3-dione]
  Recruitment Assessment: FALSE

## NCc1ccc2c(c1)C(=O)N(C1CCC(=O)NC1=O)C2 (stereo not shown) [C66979, 3-[6-(aminomethyl)-1-oxo-isoindolin-2-yl]piperidine-2,6-dione]
  Recruitment Assessment: FALSE

## Cc1cccc2c1C(=O)N(C1CCC(=O)NC1=O)S2(=O)=O (stereo not shown) [C73349, 3-(4-methyl-1,1,3-trioxo-1,2-benzothiazol-2-yl)piperidine-2,6-dione]
  Recruitment Assessment: FALSE

## COc1ccc(Br)c2c1C(=O)N(C1CCC(=O)NC1=O)C2 (stereo not shown) [C74668, 3-(4-bromo-7-methoxy-1-oxo-isoindolin-2-yl)piperidine-2,6-dione]
  Recruitment Assessment: FALSE

## Cc1cccc2c1S(=O)(=O)N(C1CCC(=O)NC1=O)C2=O (stereo not shown) [C75688, 3-(7-methyl-1,1,3-trioxo-1,2-benzothiazol-2-yl)piperidine-2,6-dione]
  Recruitment Assessment: FALSE

## Cl.NC1Cc2ccccc2C1=O (stereo not shown) [C75987, 2-aminoindan-1-one; hydrochloride]
  Recruitment Assessment: FALSE

## O=C1CCC(N2Cc3cc(Nc4ncnc5sccc45)ccc3C2=O)C(=O)N1 (stereo not shown) [C80370, 3-[1-oxo-5-(thieno[2,3-d]pyrimidin-4-ylamino)isoindolin-2-yl] piperidine-2,6-dione]
  Recruitment Assessment: FALSE

## O=C1CCC(N2Cc3cc(Nc4ncnc5ccccc45)ccc3C2=O)C(=O)N1 (stereo not shown) [C80373, 3-[-oxo-5-(quinazolin-4-ylamino)isoindolin-2-yl]piperidine-2,6-dione]
  Recruitment Assessment: TRUE

## Cn1ncc2c(Nc3ccc4c(c3)CN(C3CCC(=O)NC3=O)C4=O)ncnc21 (stereo not shown) [C80374, 3-[5-[(1-methylpyrazolo[3,4-d]pyrimidin-4-yl)amino]-1-oxo-isoindolin-2-yl]piperidine-2,6-dione]
  Recruitment Assessment: TRUE

## Nc1nccc(Nc2ccc3c(c2)CN(C2CCC(=O)NC2=O)C3=O)n1 (stereo not shown) [C80375, 3-[5-[(2-aminopyrimidm-4-yl)amino]-1-oxo-isoindolin-2-yl] piperidine-2,6-dione]
  Recruitment Assessment: FALSE

## Nc1nc(Nc2ccc3c(c2)CN(C2CCC(=O)NC2=O)C3=O)nc2sccc12 (stereo not shown) [C80379, 3-[5-[(4-aminothieno[2,3-d]pyrimidin-2-yl)amino]-1-oxo-isoindolin-2-yl]piperidine-2,6-dione]
  Recruitment Assessment: TRUE

## CC(=O)O.O=C1CCC(N2Cc3ccc(Nc4ncnc5ccccc45)cc3C2=O)C(=O)N1 (stereo not shown) [C80382 acetic acid salt, acetic acid; 3-[1-oxo-6-(quinazolin-4-ylamino)isoindolin-2-yl]piperidine-2,6-dione]
  Recruitment Assessment: FALSE

## Cn1ncc2c(Nc3ccc4c(c3)C(=O)N(C3CCC(=O)NC3=O)C4)ncnc21 (stereo not shown) [C80383, 3-[6-[(1-methylpyrazolo[3,4-d]pyrimidin-4-yl)amino]-1-oxo-isoindolin-2-yl]piperidine-2,6-dione]
  Recruitment Assessment: FALSE
